Experiments:
[1] = concentrations similar to 0.1%; cited from earlier work
[2] = tested on: rat AAA model; settings: local application; cited from earlier work
[3] = tested on: human PAs; assay: Ex vivo culture of human PAs followed by uniaxial tensile test; settings: 0.1% PGG
Protocol: Uniaxial tensile test. Following harvesting, human PA samples were kept in normal saline on ice and assessed for biomechanics within 2-4 h. […] Loose connective and adipose tissue were carefully removed, and sample dimensions (length and width) were measured using a digital caliper. The circumferential tensile properties of PAs were assessed using a MyoDynamics Muscle Strip Myograph System (840DM, Danish Myo Technology, Hinnerup, Denmark) with controlled temperature (37° C.) and aeration. To this end, circumferential rectangular sections (2×8 mm) were excised from the pulmonary trunk and mounted at 5 mm length. […] From force-displacement curves, the following parameters were derived: stiffness of elastin (k1)- and collagen (k2)-enriched arterial material (calculated as the slopes of the toe- and linear regions, respectively), with stiffness (k, mN/mm) reflecting the resistance to deformation (ΔF/ΔL) generated by the respective material, and the strain at which the transition of load-bearing elements from elastin to collagen occurred (εTrans), defined based on force-displacement curve characteristics as the strain applied when F reached 100 mN.
Effects of PGG on PA biomechanics. The effect of PGG on PA biomechanical properties was assessed by ex vivo culture of PA specimens followed by uniaxial tensile testing. […]

[4] = tested on: human PAs; assay: Ex vivo culture of human PAs with or without elastase, EVG staining of elastic fibers
Protocol: Effects of PGG on PA biomechanics. The effect of PGG on PA biomechanical properties was assessed by ex vivo culture of PA specimens followed by uniaxial tensile testing. Freshly isolated PAs were handled under sterile conditions. One piece of the artery was excised and directly underwent uniaxial tensile testing to record PA biomechanics at baseline. The rest of the PA was prepared as 2×8-mm strips and placed in a 12-well plate for ex vivo culture in serum-free Dulbecco's modified Eagle's medium (DMEM, Gibco) supplied with penicillin-streptomycin (Thermo Fisher) at 37° C. with controlled humidity at 21% O2 and 5% CO2. PGG (penta-O-galloyl-β-D-glucose hydrate, Sigma-Aldrich) was dissolved in dimethyl sulfoxide (DMSO, Sigma-Aldrich) as a stock solution and added to the medium at a final concentration of 0.1%. […] The following four treatment conditions were tested: control, elastase only, PGG only and PGG prior to elastase. PGG treatment was performed for 1 h at 37° C. prior to culturing PAs for 24 h in the presence or absence of elastase. Control samples were incubated with the corresponding concentrations of DMSO. Histology. Human or rat PA samples were cryo-embedded in OCT Compound (Tissue-Tek) and sliced into 10 μm transverse sections on a Microm HM560 cryostat. […] EVG staining was quantified based on positively stained area on single-plane images using Fiji-ImageJ.

Elastic fibers (EVG staining) after elastase treatment ([4]; 0.1% PGG, 1 U porcine elastase for 24 h): partially preserved
Elastin content ([4]; naïve PAs and PAs treated with elastase): increased elastin content
SMILES: O=C(OC[C@H]1O[C@@H](OC(=O)c2cc(O)c(O)c(O)c2)[C@H](OC(=O)c2cc(O)c(O)c(O)c2)[C@@H](OC(=O)c2cc(O)c(O)c(O)c2)[C@@H]1OC(=O)c1cc(O)c(O)c(O)c1)c1cc(O)c(O)c(O)c1 [PGG, 1,2,3,4,6-Penta-O-galloyl-β-D-glucose]
Cytotoxicity [1]: minimal cytotoxicity
Aneurysmal expansion [2]: reduce
Elastic fiber degeneration [2]: effectively decrease
εTrans in uniaxial tensile tests ([3]; elastase-treated PAs): increased
Load borne by elastic fibers ([3]; naïve PAs): increased the load borne by elastic fibers
